pIC50: −log10 of the molar value.
Assays:
Semliki Forest virus = test: Antiviral activity against Semliki forest virus infected in mouse; format: functional
[1] = Cytotoxicity against human KB cells assessed as cell growth inhibition by crystal violet staining based spectrophotometry; settings: read-out: TC50 (the source's name)
[2] = Cytotoxicity against human MRC5 cells assessed as cell growth inhibition by aqueous non-Radioactivity Cell proliferation Assay; format: cell-based; settings: read-out: TC50 (the source's name)
[3] = Cytotoxicity against monkey Vero cells assessed as cell growth inhibition by aqueous non-Radioactivity Cell proliferation Assay; format: cell-based; settings: chlorocebus sabaeus, read-out: TC50 (the source's name)
Human betaherpesvirus 5 = test: Antiviral activity against Human cytomegalovirus Towne infected in HFF cells after 2 hrs by plaque reduction assay; format: functional, cell-based; settings: Human betaherpesvirus 5, Towne
[4] = molecular target: T1, Corticotropin-releasing factor receptor 1 (Homo sapiens) (UniProt P34998); test: Displacement of [125I]-Tyr0 sauvagine from human CRF1 receptor expressed in HEK293 cells membrane homogenates at 1000 nM for 120 mins by scintillation counting in the presence of antalarmin; format: cell membranes
T1 sequence (whole entry): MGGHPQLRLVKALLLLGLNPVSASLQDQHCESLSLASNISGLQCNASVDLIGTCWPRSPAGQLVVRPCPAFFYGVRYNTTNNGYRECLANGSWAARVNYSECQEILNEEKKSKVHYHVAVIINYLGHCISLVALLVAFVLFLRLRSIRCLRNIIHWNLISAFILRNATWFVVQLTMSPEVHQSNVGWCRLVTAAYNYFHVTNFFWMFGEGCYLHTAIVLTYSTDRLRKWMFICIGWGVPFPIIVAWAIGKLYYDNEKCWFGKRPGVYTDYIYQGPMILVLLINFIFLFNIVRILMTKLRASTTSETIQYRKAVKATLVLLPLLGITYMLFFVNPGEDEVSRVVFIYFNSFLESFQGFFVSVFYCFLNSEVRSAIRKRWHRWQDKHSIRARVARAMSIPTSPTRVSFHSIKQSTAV

| pIC50 (Human betaherpesvirus 5) | inhibition [4] [%] | Compound | Activity (Semliki Forest virus) [%] | CC50 [1] [µM] | CC50 [2] [µM] | CC50 [3] [µM] |
| --- | --- | --- | --- | --- | --- | --- |
| – | – | Nc1nc(=O)c2sc(=O)n([C@@H]3O[C@H](CO)[C@@H](O)[C@H]3O)c2[nH]1 [ISATORIBINE] | 92 | – | – | – |
| 5.17 | – | CC(C)=CCn1c(=O)sc2c(=O)[nH]c(N)nc21 | – | 75 | 75 | 75 |
| – | 25 | CCOC(=O)/C(C#N)=C1/Sc2c(N(CCOC)CCOC)nc(C)nc2N1c1ccc(C(C)C)cc1Br | – | – | – | – |
| 6.30 | – | CC/C=C/Cn1c(=O)sc2c(=O)[nH]c(N)nc21 | – | 75 | 75 | 75 |
| – | 25 | CCCN(CC1CC1)c1nc(C)nc2c1SC(=C(C#N)C#N)N2c1ccc(C(C)C)cc1Br | – | – | – | – |
